In ChEMBL document CHEMBL4665642, “Anticancer profile of newly synthesized BRAF inhibitors possess 5-(pyrimidin-4-yl)imidazo[2,1-b]thiazole scaffold” (Bioorg Med Chem, 2019):

Key:
[1] = test system: SK-MEL-28; experiment: Cytotoxicity against human SK-MEL-28 cells assessed as reduction in cell viability by MTT assay; type: functional, cell-based
[2] = test system: A-375; experiment: Cytotoxicity against human A-375 cells assessed as reduction in cell viability by MTT assay; type: functional, cell-based
[3] = molecular target: RAF proto-oncogene serine/threonine-protein kinase (Homo sapiens, UniProt P04049); experiment: Inhibition of human CRAF using MEK1 as substrate by [gamma-33P]-ATP assay
Chain of RAF proto-oncogene serine/threonine-protein kinase (P04049 whole entry): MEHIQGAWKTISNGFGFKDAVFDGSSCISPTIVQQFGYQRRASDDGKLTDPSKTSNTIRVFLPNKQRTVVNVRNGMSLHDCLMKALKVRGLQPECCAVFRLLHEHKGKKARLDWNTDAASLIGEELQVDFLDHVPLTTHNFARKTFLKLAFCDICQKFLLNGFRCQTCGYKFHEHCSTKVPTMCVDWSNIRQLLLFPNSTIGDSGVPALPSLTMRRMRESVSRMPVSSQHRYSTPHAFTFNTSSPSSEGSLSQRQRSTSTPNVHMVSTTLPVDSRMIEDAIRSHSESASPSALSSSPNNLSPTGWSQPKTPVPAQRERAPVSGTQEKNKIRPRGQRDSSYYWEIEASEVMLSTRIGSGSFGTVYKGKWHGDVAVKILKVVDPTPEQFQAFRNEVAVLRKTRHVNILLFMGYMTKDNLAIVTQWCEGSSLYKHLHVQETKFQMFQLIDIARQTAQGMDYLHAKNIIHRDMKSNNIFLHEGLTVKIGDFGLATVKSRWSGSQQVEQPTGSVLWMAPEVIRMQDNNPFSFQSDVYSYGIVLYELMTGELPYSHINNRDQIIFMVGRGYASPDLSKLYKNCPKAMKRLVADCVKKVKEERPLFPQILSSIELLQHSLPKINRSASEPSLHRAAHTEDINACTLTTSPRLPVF

[4] = molecular target: Serine/threonine-protein kinase B-raf (Homo sapiens, UniProt P15056); experiment: Inhibition of human BRAF using MEK1 as substrate by […] assay
Chain of Serine/threonine-protein kinase B-raf (Homo sapiens, UniProt P15056) (P15056 whole entry): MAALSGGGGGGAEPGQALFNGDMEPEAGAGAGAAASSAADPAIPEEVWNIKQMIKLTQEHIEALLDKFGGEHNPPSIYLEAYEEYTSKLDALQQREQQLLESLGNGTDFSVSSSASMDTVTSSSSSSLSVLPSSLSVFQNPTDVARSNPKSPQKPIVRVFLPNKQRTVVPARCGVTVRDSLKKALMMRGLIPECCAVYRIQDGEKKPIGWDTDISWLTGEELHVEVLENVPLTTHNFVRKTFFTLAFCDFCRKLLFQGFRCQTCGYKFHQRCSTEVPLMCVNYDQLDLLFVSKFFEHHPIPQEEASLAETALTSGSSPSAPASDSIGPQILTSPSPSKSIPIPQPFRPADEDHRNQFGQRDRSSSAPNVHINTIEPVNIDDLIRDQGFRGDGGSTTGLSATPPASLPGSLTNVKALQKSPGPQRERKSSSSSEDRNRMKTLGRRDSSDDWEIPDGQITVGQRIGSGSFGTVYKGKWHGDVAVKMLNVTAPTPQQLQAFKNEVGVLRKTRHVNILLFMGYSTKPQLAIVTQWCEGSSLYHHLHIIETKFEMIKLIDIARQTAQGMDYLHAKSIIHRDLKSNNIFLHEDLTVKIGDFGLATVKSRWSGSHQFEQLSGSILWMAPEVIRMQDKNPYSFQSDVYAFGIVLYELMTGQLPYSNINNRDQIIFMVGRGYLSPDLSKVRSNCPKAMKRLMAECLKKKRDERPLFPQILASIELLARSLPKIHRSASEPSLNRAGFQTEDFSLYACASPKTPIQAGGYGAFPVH

[5] = molecular target: Serine/threonine-protein kinase B-raf (Homo sapiens, UniProt P15056, V600E); experiment: Inhibition of human BRAF V600E mutant using MEK1 as substrate by […] assay
Chain of Serine/threonine-protein kinase B-raf (Homo sapiens, UniProt P15056, V600E) (P15056 2-766 V600E limits assumed): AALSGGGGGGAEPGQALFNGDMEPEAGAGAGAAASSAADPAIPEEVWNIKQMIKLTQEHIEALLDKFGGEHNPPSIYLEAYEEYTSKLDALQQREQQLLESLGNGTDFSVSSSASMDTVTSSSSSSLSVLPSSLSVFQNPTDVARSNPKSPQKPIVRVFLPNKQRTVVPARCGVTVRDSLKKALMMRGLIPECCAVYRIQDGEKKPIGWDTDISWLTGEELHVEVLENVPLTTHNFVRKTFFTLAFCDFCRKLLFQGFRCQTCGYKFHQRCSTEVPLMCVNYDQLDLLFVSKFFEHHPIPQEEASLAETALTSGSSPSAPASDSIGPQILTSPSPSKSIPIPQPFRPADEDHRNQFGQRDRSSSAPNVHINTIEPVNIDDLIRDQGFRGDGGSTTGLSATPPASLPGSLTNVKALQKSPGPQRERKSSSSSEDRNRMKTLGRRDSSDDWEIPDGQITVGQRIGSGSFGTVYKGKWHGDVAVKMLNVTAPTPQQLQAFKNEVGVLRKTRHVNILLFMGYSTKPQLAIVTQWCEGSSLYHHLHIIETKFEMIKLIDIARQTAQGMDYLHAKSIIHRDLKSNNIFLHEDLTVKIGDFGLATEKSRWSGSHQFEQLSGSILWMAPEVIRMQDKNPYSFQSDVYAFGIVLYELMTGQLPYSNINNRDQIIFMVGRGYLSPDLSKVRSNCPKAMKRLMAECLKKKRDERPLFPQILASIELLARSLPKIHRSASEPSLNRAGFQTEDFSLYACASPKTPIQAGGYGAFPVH

[6] = test system: L132; experiment: Cytotoxicity against human L132 cells assessed as reduction in cell viability by MTT assay; type: cell-based

Row | IC50 [3] | IC50 [4] | IC50 [5] | SMILES | IC50 [1] | IC50 [2] | IC50 [6]
1 | – | – | – | Cc1ccc(S(=O)(=O)NCCNc2nccc(-c3c(-c4cccc(F)c4)nc4sccn34)n2)cc1 | > 20 µM | 15.4 µM | –
2 | – | – | – | O=C(NCCCNc1nccc(-c2c(-c3cccc(F)c3)nc3sccn23)n1)c1ccc(Cl)cc1 | > 20 µM | 13.7 µM | –
3 | 0.0261 µM | 0.0551 µM | 0.0251 µM | COc1ccc(S(=O)(=O)NCCCNc2nccc(-c3c(-c4cccc(F)c4)nc4sccn34)n2)cc1 | 8.98 µM | 5.51 µM | –
4 | – | – | – | Cc1ccc(C(=O)NCCNc2nccc(-c3c(-c4cccc(F)c4)nc4sccn34)n2)cc1 | 18.8 µM | 5.88 µM | 245 µM
5 | – | – | – | CNC(=O)c1cc(Oc2ccc(NC(=O)Nc3ccc(Cl)c(C(F)(F)F)c3)cc2)ccn1 [SORAFENIB] | 9.45 µM | 7.88 µM | –
